US20240157017A1, “A MEDICAL DRESSING COMPRISING A BACTERIOSTATIC COMPOSITION” (Mölnlycke Health Care AB, priority 2021, published 2024)

Assays:
[1] = system: Pseudomonas aeruginosa (ATCC #15692, PaO1); test: Bacterial growth in wells of Calgary biofilm device (petrifilm); format: cell-based; conditions: inoculum 1×10^6 CFU/ml, 24, 48, 72 hrs
Method: (§1) An evaluation of possible bacteriostatic effect of deferiprone (3-6 mM) on the gram-negative bacterium Pseudomonas aeruginosa (ATCC #15692, PaO1) and connection to ability to form biofilm on a plastic surface, using the Calgary biofilm device (CBD) (Journal of Clinical Microbiology, June 1999, p. 1771-1776) was performed. This method utilizes 96-well microplates with lids containing 96 plastic cone shaped protrusions that extend into the wells of the plate. By submerging the plastic cones into bacterial solution, biofilm attachment to the pegs can be studied. Different concentrations of Deferiprone (0, 0.37, 0.75, 1.5, 3, 6 mM) were dissolved in Simulated Wound Fluid (SWF) and added to wells in the CBD plate. PaO1 was then inoculated at a total bacterial concentration of 1×10^6 CFU/ml and the lid was placed on the plate. Following incubation at 35° C. for 24, 48, 72 hrs, bacterial concentration from the wells were calculated using petrifilm and the plastic protrusions were analyzed for biofilm attachment using a luminescence kit that quantifies bacterial viability (Promega BacTiter-GLO).

[2] = system: Pseudomonas aeruginosa (ATCC #15692, PaO1); test: Bacteriostatic effect on planktonic cultures with different bacterial inoculum sizes in SWF; format: cell-based; conditions: 3 mM deferiprone in SWF
Method: An evaluation of possible bacteriostatic effect of deferiprone (3 mM) on the gram-negative bacterium Pseudomonas aeruginosa (ATCC #15692, PaO1) and effect of bacterial start concentrations was performed. Deferiprone (3 mM) was dissolved into Simulated Wound Fluid (SWF) (fetal bovine serum (FBS) and Peptone Water (PW) mixed in equal proportions, which correspond to the protein and electrolyte concentration of wound exudates (Emiko Aiba-Kojima, MD et.al Wound Rep Reg (2007) 15 511-520; Trengove, N et al Wound Rep Reg (1996) 4 1067-1927)). Bacterial concentrations ranging from 10−1×10^8 CFU/ml were inoculated into different test tubes +/− Deferiprone (3 mM) in SWF and incubated at 35° C. for 24 hrs before bacterial numbers were determined using petrifilm.

[3] = system: clinical wound isolates of Pseudomonas aeruginosa; test: Effect on clinical wound isolates in SWF; format: cell-based; conditions: 3 mM deferiprone in SWF, 24 hrs at 35° C., all isolates tested
Method: Bacteriostatic effect of deferiprone was tested on different clinical wound isolates of Pseudomonas aeruginosa. Isolates were typed according to known virulence factors (FIG. 9a) and subjected for treatment +/−3 mM deferiprone in SWF for 24 hrs at 35° C. Bacterial start concentrations and concentrations after treatment were measured using petrifilm.

[4] = system: virulence factor pyoverdine; test: Pyoverdine levels in supernatants by LC-MS; format: cell-based, Pseudomonas aeruginosa; conditions: 0.03 and 0.3 mM deferiprone in SWF, 72 hrs at 35° C.
Method: In order to evaluate if sub-bacteriostatic concentrations (<3 mM) of deferiprone have an effect on the virulence factor pyoverdine, supernatants of planktonically grown PaO1 (1×10^6 CFU/ml) +/− deferiprone at 0.3 and 0.03 mM in SWF were analyzed by LC-MS for pyoverdine after 72 hrs at 35° C.

[5] = system: Pseudomonas aeruginosa (ATCC #15692, PaO1); test: Biofilm attachment to pegs of Calgary biofilm device (Promega BacTiter-GLO luminescence); format: cell-based
Method: as §1

PaO1 = test: Growth of planktonic PaO1 at sub-bacteriostatic concentrations in SWF; format: cell-based, Pseudomonas aeruginosa; conditions: 1×10^6 CFU/ml, 72 hrs at 35° C.
Actinobacter baumannii = test: Bacteriostatic effect on other gram-negative species in SWF; format: cell-based; conditions: 3 mM deferiprone in SWF, 24 hrs at 35° C.
Method: (§2) The bacteriostatic effect of deferiprone was tested on other gram negative species than Pseudomonas aeruginosa in order to see if the bacteriostatic effect of deferiprone extends to other gram negative species. The following bacteria were tested: Actinobacter baumannii, Echerschia coli, Klebsiella pneumoniae +/−3 mM deferiprone in SWF for 24 hrs at 35° C. Bacterial start concentrations and concentrations after treatment were measured using petrifilm.

Klebsiella pneumoniae = test: as above; format: cell-based; conditions: 3 mM deferiprone in SWF, 24 hrs at 35° C.
Method: as §2

Echerschia coli = test: as above; format: cell-based; conditions: 3 mM deferiprone in SWF, 24 hrs at 35° C.
Method: as §2

[6] = system: PaO1 in a biofilm phenotype; test: Bacteriostatic effect in collagen (wound-like matrix) gels, bacteria in biofilm phenotype; format: cell-based, Pseudomonas aeruginosa; conditions: 3 mM deferiprone, different start concentrations, 24 hrs at 35° C.
Method: Collagen gels were created and inoculated with 1×10^6 CFU/ml PaO1. Gels were incubated for 24 hrs at 35° C. in order to obtain bacteria in biofilm phenotype. New collagen gels +/−3 mM deferiprone were created and different bacterial start concentrations were inoculated into the gels. Following 24 hrs incubation at 35° C., the gels were solubilized and bacterial counts were measured using petrifilm.

## Cc1c(O)c(=O)ccn1C [deferiprone]
[1]; 3 mM deferiprone in SWF
  effect on growth of PaO1 in CBD wells: bacteriostatic
[1]; 6 mM deferiprone in SWF
  effect on growth of PaO1 in CBD wells: bacteriostatic
[2]; 35° C., 24 hrs
  bacterial concentration after 24 hrs: equals the bacterial start concentration
[2]; 35° C., 24 hrs, different start inoculums
  effect on growth of PaO1 in planktonic cultures: true bacteriostatic effect
[2]; different start inoculums
  toxicity to PaO1: non-toxic
[3]
  effect on growth of clinical wound isolates: bacteriostatic effects
[4]
  pyoverdine levels in supernatants: dose-dependent decrease
[5]; 3 mM deferiprone in SWF, 24, 48, 72 hrs
  biofilm formation on pegs of CBD plate: No biofilm was formed
[5]; 6 mM deferiprone in SWF, 24, 48, 72 hrs
  biofilm formation on pegs of CBD plate: No biofilm was formed
[5]; all other concentrations (0.37, 0.75, 1.5 mM) of deferiprone in SWF
  biofilm formation on pegs of CBD plate (read-out signal): full growth
PaO1; 0.03 mM deferiprone in SWF
  effect on growth characteristics of PaO1: does not affect growth characteristics
PaO1; 0.3 mM deferiprone in SWF
  effect on growth characteristics of PaO1: does not affect growth characteristics
Actinobacter baumannii
  effect on growth of Actinobacter baumannii: sensitive
Klebsiella pneumoniae
  effect on growth of Klebsiella pneumoniae: sensitive
Echerschia coli
  effect on growth of Echerschia coli: same bacteriostatic effects
[6]
  effect on growth of PaO1 in collagen gel: a bacteriostatic effect is observed
